Data taken from PubChem BioAssay (NCI).
“And” between values parts separate entries of the source, which are not always exact repeats. Equal values may be shown once.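 Grown in 96-well plates, cells were treated for 48 hours with each compound at five concentrations. Insufficient inhibition: endpoint recorded as highest concentration tested. At the GI50, growth is halved. Definition used: TGI = concentration required for complete inhibition of growth.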

How the values were obtained:
Assay in all cases: growth of human tumour cells (NCI), 48 h
[1] = test system: 786-0 renal
[2] = test system: CAKI-1 renal
[3] = test system: CCRF-CEM leukemia
[4] = test system: HCT-116 colon
[5] = test system: SK-OV-3 ovarian
[6] = test system: SN12C renal
[7] = test system: SNB-75 CNS
[8] = test system: SW-620 colon
[9] = test system: T-47D breast
[10] = test system: MDA-MB-231 breast

Work on `O=C(N/C(=C\c1ccc([N+](=O)[O-])cc1)c1nc2ccccc2s1)c1ccccc1` yielded a TGI [1] of 34.1 µM, a TGI [2] of 95.8 µM and a TGI [3] of 66.3 µM. For the same molecule, the TGI [4] was over 100 µM, the TGI [5] was over 100 µM and the TGI [6] was 44.9 µM. For the same molecule, the TGI [7] was 63.5 µM and the TGI [8] was 69 µM.
With `COC(=O)CC1(O)C(=O)OCc2c1cc1n(c2=O)Cc2c-1nc1ccccc1c2OC` (stereo not drawn) the TGI [1] was 0.813 µM, the TGI [2] was 4.62 µM and the TGI [3] was 0.594 µM. The TGI [4] was over 100 µM, the TGI [5] was 17.4 µM and the TGI [6] was 1.84 µM. It also gave a TGI [7] of 3.56 µM and a TGI [8] of over 100 µM.
In the case of `C=CCNC(=S)NNC(=O)c1c(C)nc2sccn12`, the TGI [1] is reported as over 100 µM, the TGI [2] is reported as over 100 µM and the TGI [3] is reported as over 100 µM. For the same molecule, the TGI [4] was over 100 µM, the TGI [5] was over 100 µM and the TGI [6] was over 100 µM. The TGI [8] was over 100 µM.
For `CCN(CC)CCOC(COc1cc(C)cc(C)c1)COc1cc(C)cc(C)c1`, the GI50 [1] was 3.2 µM, the TGI [1] was 14.5 µM and the GI50 [2] was 3.7 µM. It also gave a TGI [2] of 16 µM, a GI50 [3] of 2.25 µM and a TGI [3] of 8.24 µM. The GI50 [4] was 3.31 µM, the TGI [4] was 14.9 µM and the GI50 [5] was 4.86 µM. For the same molecule, the TGI [5] was 17.7 µM, the GI50 [6] was 2.62 µM and the TGI [6] was 15.6 µM. The GI50 [7] was 5.75 µM, the TGI [7] was 20.8 µM and the GI50 [8] was 1.59 µM. The TGI [8] was 4.63 µM, the GI50 [9] was 2.34 µM and the TGI [9] was 6.83 µM.
With `CC(=O)CCC1(c2ccccc2)OC(=O)C(C#N)=C1c1ccccc1` (stereo not drawn) the TGI [1] was over 100 µM, the TGI [3] was over 100 µM and the TGI [4] was over 100 µM. It also gave a TGI [5] of over 100 µM, a TGI [6] of over 100 µM and a TGI [7] of 74.1 µM. For the same molecule, the TGI [8] was over 100 µM.
`CC1[C@@]2(CCC(C)(C)O2)O[C@@H]2C=C3C4CCC5Cc6nc7c(nc6C[C@@]5(C)C4C[C@H](O)[C@@]3(C)[C@]12O)CC1CCC2C3=C[C@H]4O[C@@]5(O[C@@](C)(CO)C[C@@H]5O)C(C)[C@@]4(O)[C@]3(C)[C@@H](O)CC2[C@]1(C)C7` (stereo partly drawn) was tested, and the TGI [1] was 0.6 µM, the GI50 [2] was 0.0195 µM and the TGI [2] was 0.66 µM. The GI50 [3] was 0.0017 µM, the TGI [3] was 0.106 µM and 0.018 µM and the GI50 [4] was 0.0273 µM. For the same molecule, the TGI [4] was 0.719 µM and 0.493 µM, the GI50 [5] was 0.00178 µM and the GI50 [6] was 0.421 µM. It also gave a TGI [6] of 1.19 µM, a GI50 [7] of under 0.000365 µM and a GI50 [8] of 0.00938 µM. For the same molecule, the TGI [8] was 0.499 µM and 0.0508 µM.
In the case of `Cc1ccc(NCCNCC(C)(C)O)c2c(=O)c3ccc(Cl)cc3sc12`, the GI50 [1] is reported as 1.57 µM, the TGI [1] is reported as 3.04 µM and the GI50 [4] is reported as 1.3 µM. The TGI [4] was 2.66 µM, the GI50 [10] was 1.16 µM and the TGI [10] was 2.57 µM. It also gave a GI50 [5] of 1.46 µM, a TGI [5] of 2.98 µM and a GI50 [6] of 1.47 µM. For the same molecule, the TGI [6] was 3.01 µM, the GI50 [7] was 1.34 µM and the TGI [7] was 2.85 µM. It also gave a GI50 [8] of 1.5 µM and a TGI [8] of 2.96 µM.
`C=C1OC2OC(C)C(NC(=O)OCC(Cl)(Cl)Cl)C(OC(C)=O)C2O1` (stereo not drawn) showed a TGI [1] of over 100 µM, a TGI [2] of over 100 µM and a TGI [3] of over 100 µM. The TGI [4] was over 100 µM, the TGI [10] was over 100 µM and the TGI [5] was over 100 µM. The TGI [6] was over 100 µM, the TGI [8] was over 100 µM and the TGI [9] was over 100 µM.
Molecule `CC[C@H](C)[C@H](NC(=O)[C@H]1CCCCN1C)C(=O)N(C)[C@H](CCc1nc(C(=O)N[C@@H](Cc2ccccc2)C[C@H](C)C(=O)O)cs1)C(C)C` has a GI50 [1] of 0.476 µM, a TGI [1] of over 25 µM and a GI50 [3] of 0.0857 µM. It also gave a TGI [3] of over 25 µM, a GI50 [4] of 0.133 µM and a TGI [4] of over 25 µM. The GI50 [10] was 0.596 µM, the TGI [10] was over 25 µM and the GI50 [5] was 0.585 µM. It also gave a TGI [5] of over 25 µM, a GI50 [6] of 0.445 µM and a TGI [6] of over 25 µM. The GI50 [7] was 0.0621 µM, the TGI [7] was over 25 µM and the GI50 [8] was 0.124 µM. It also gave a TGI [8] of over 25 µM.
`CC(C)c1ccc(O)c(Cc2cc(C(C)C)cc(Cc3cc(C(C)C)ccc3O)c2O)c1` showed a TGI [1] of 3.08 µM, a TGI [2] of 2.91 µM and a TGI [3] of 6.91 µM. For the same molecule, the TGI [4] was 3.19 µM, the TGI [5] was 3.05 µM and the TGI [6] was 3.16 µM. The TGI [7] was 5.03 µM and the TGI [8] was 3.09 µM.
For `OC12CCC3(OC4CCCCO4)c4ccccc4C3C1c1ccccc12` (stereo not drawn), the TGI [1] was over 100 µM, the TGI [3] was over 100 µM and the TGI [4] was over 100 µM. For the same molecule, the TGI [5] was over 100 µM, the TGI [6] was over 100 µM and the TGI [7] was over 100 µM. It also gave a TGI [8] of over 100 µM.
`Cc1cc(Cl)ccc1N=C1NC(=O)C(CC(=O)Nc2cccc(Cl)c2)S1` (stereo not drawn) showed a TGI [1] of over 100 µM, a TGI [2] of over 100 µM and a TGI [3] of over 100 µM. It also gave a TGI [4] of over 100 µM, a TGI [5] of over 100 µM and a TGI [6] of over 100 µM. For the same molecule, the TGI [7] was over 100 µM and the TGI [8] was over 100 µM.
`Cc1ccc(C)c2c1C1CCCCC3(OCCCO3)C21O` (stereo not drawn) gave a TGI [1] of over 100 µM, a TGI [2] of over 100 µM and a TGI [3] of over 100 µM. The TGI [4] was over 100 µM, the TGI [5] was over 100 µM and the TGI [6] was over 100 µM. It also gave a TGI [7] of over 100 µM and a TGI [8] of over 100 µM.
In the case of `Clc1ccc2c(NCCNc3nc(N4CCOCC4)nc4ccccc34)ccnc2c1`, the GI50 [1] is reported as 1.79 µM, the TGI [1] is reported as 4.95 µM and the GI50 [3] is reported as 1.67 µM. The TGI [3] was 11.7 µM, the GI50 [4] was 1.66 µM and the TGI [4] was 3.3 µM. For the same molecule, the GI50 [10] was 1.56 µM, the TGI [10] was 3.63 µM and the GI50 [5] was 1.85 µM. It also gave a TGI [5] of 3.85 µM, a GI50 [6] of 2.75 µM and a TGI [6] of 7.69 µM. For the same molecule, the GI50 [7] was 1.44 µM, the TGI [7] was 2.85 µM and the GI50 [8] was 2.97 µM. The TGI [8] was 10.8 µM, the GI50 [9] was 2.82 µM and the TGI [9] was 8.98 µM.
Molecule `O=c1ccc(N=Nc2ccccc2)ccc1O` has a TGI [1] of 58 µM, a TGI [2] of 29.4 µM and a TGI [4] of 26 µM. The TGI [10] was 36.9 µM, the TGI [5] was over 100 µM and the TGI [6] was 34.6 µM. It also gave a TGI [7] of 57.8 µM, a TGI [8] of 22.5 µM and a TGI [9] of 42.4 µM.
`CC(=O)c1cc2c(N)c(C(=O)Nc3cccc4ccccc34)sc2nc1C` showed a GI50 [1] of 1.87 µM, a TGI [1] of over 50 µM and a GI50 [3] of 2.02 µM. It also gave a TGI [3] of over 50 µM, a GI50 [4] of 2.23 µM and a TGI [4] of over 50 µM. The GI50 [10] was 3.41 µM, the TGI [10] was over 50 µM and the GI50 [5] was 0.512 µM. It also gave a TGI [5] of over 50 µM, a GI50 [6] of 3.44 µM and a TGI [6] of over 50 µM. The GI50 [7] was 1.98 µM, the TGI [7] was 35.5 µM and the GI50 [8] was 1.55 µM. The TGI [8] was over 50 µM, the GI50 [9] was 1.6 µM and the TGI [9] was over 50 µM.
For `COc1cc(C2CC(c3ccccc3)=NN2C=O)ccc1Oc1ccnc2cc(Cl)ccc12` (stereo not drawn), the GI50 [1] was 11.5 µM, the TGI [1] was 73.7 µM and the GI50 [2] was 5.2 µM. For the same molecule, the TGI [2] was over 100 µM, the GI50 [4] was 6.07 µM and the TGI [4] was over 100 µM. It also gave a GI50 [10] of 28.5 µM, a TGI [10] of over 100 µM and a GI50 [5] of 4.56 µM. For the same molecule, the TGI [5] was over 100 µM, the GI50 [6] was over 100 µM and the TGI [6] was over 100 µM. The GI50 [7] was 3.31 µM, the TGI [7] was 21 µM and the GI50 [8] was over 100 µM. For the same molecule, the TGI [8] was over 100 µM, the GI50 [9] was 10.3 µM and the TGI [9] was 39.7 µM.
For `N#C/C(=C\c1ccc(O)cc1)C(N)=O`, the TGI [1] was over 100 µM, the TGI [2] was over 100 µM and the TGI [3] was over 100 µM. It also gave a TGI [4] of over 100 µM, a TGI [5] of over 100 µM and a TGI [6] of over 100 µM. The GI50 [7] was > 49.9 µM and 12.7 µM, the TGI [7] was > 94.3 µM and 54.7 µM and the TGI [8] was over 100 µM.
